According to patent US20100115832A1, “MOISTURIZING AGENT WITH NUTRIENTS” (priority 2006, published 2010):

Conditions: research at the DRiWATER lab

effect on gel degradation in soil: will slow gel degradation in soil
SMILES: CC(=O)O [acetic acid]
